The results in this text go back to patent US20100197749A1, “CHEMICAL COMPOUNDS” (ASTRAZENECA AB, priority 2006, published 2010).

A word on the EC50: it is the midpoint of the concentration-response curve.

Structures are written as SMILES.

The target in this assay is T1, EDG-1/S1P1 receptor (Homo sapiens, UniProt P21453).
T1 construct: expressed in transfected cells; host or cells: U2OS (human osteosarcoma), EDG-1 Transfluor U20S WT Clone #37
The assay can be described thus: In Vitro Cell Based Receptor Activation Assay-Transfluor Assay. The settings on record: inhibition of S1P-stimulated (375 nM or 750 nM) beta-arrestin GFP relocalization; EDG-1 Transfluor U20S WT Clone #37 cells. From the text: The following assay can be used to measure the effects of the compounds of the present invention as S1P1/Edg1 inhibitors.
This cell-based assay was designed to assess the ability of small molecule antagonists to inhibit activation of the GPCR S1P1 in the presence of its cognate ligand S1P. The assay used technology initially developed by Norak Biosciences (Xsira Pharmaceutical) and presently owned by Molecular Devices. A human osteogenic sarcoma (U20S) cell line overexpressing the EDG-1/S1P1) receptor as well as a beta-arrestin/green fluorescent protein (GFP) construct hereafter termed EDG-1 Transfluor U20S WT Clone #37 was employed.
Using a high content screening approach (Cellomics Arrayscan), receptor activity was measured by assessment of the relocalization of beta-arrestin GFP in response to stimulation of EDG-1 by SIP. Specifically, EDG-1 Transfluor U20S WT Clone #37 cells were plated at a density of 6250 cells in 40 μL medium per well in 384 well plastic bottomed microtiter plates (BD Falcon) and incubated overnight at 37° C./5% CO2. Prior to screening, compounds were dissolved in 100% dimethyl sulfoxide (DMSO) to a final stock concentration of 10 mM. […] Plates were then sealed and analysed on the Cellomics Arrayscan using the GPCR signalling algorithm. EC50 values were then calculated using IDBS ActivityBase software.

With `CCn1c(C(C)NS(=O)(=O)c2ccc(Cl)cc2)nnc1C(F)(F)F` (centres unmarked) [Example 11, 4-Chloro-N-[1-(4-ethyl-5-trifluoromethyl-4H-[1,2,4]triazol-3-yl)-ethyl]-benzenesulfonamide], the EC50 amounted to 670 nM. In other words, the sub-micromolar range. For `CCn1c(OC)nnc1[C@@H](Cc1cccnc1)NS(=O)(=O)c1ccc(Cl)cc1` [Example 16, 4-Chloro-N-[(R)-1-(4-ethyl-5-methoxy-4H-[1,2,4]triazol-3-yl)-2-pyridin-3-yl-ethyl]benzenesulfonamide] the value was 133 nM.
